The values that follow come from patent US20260306460A1, “COMPOSITION FOR REMOVING AND INHIBITING SENESCENT CELLS, AND USES THEREOF” (LIFECEUTIX CO., LTD., priority 2023, published 2026).

The subject of experiment [1] is senescent cells. As to the kind of experiment: Viability of senescent cells (CellTiter-Glo), Example 17, Table 13. To be noted: Homo sapiens, read-out: Survival (%). In general terms: Cellular ATP, detected with luciferase, serves as a proxy for viable cell number.
Description: Cells induced to undergo senescence by doxorubicin treatment were treated with test compound at designated concentrations and measured using the CellTiter-Glo Luminescent Cell Viability Assay (Promega).
Experiment [2] concerns carbon tetrachloride-induced liver fibrosis mice. As to the kind of experiment: Carbon tetrachloride-induced liver fibrosis mice, Example 31, Table 57. The experiment is classed as in vivo, mouse. Conditions: CCl4-induced liver fibrosis mice, untreated = 100%. The procedure: (§1) The control group was administered only the solution in the same volume. After the end of drug administration, the method described in each example below was performed. Liver, kidney, skin, knee joint, heart, and femur tissues were collected from mice in which natural aging was induced in the same manner as in Examples 7-2 and 7-6 of WO2023-085787 A1. Lung tissues were collected from mice in which pulmonary fibrosis was induced using the same method as in Example 24-1. Liver tissues were collected from mice in which hepatic fibrosis was induced using the same method as in Example 26, and total RNA was extracted. qRT-PCR was performed and analyzed using the synthesized cDNA. […] The mRNA amounts of p16, MMP3, and IL6 after natural aging was induced were calculated as 100% and compared with the mRNA amounts of p16, MMP3, and IL6 after treatment with the test compound. In addition, an open field test for the analysis of aging-related frailty, agtr1a mRNA analysis for kidney damage and disease evaluation, col1a1 and SDF1 mRNA analysis for skin aging evaluation such as wrinkles/loss of elasticity/hyperpigmentation, col2a1 mRNA analysis for evaluating joint aging such as osteoarthritis, sur2a mRNA analysis for evaluating cardiac aging such as decreased cardiac load resistance, ctsk mRNA analysis for evaluating bone diseases due to aging such as osteoporosis, muscle tissue weight for analyzing sarcopenia, fat tissue weight for analyzing lipoatrophy, and cataract incidence analysis were performed in mice. For cataract incidence analysis, the drug was administered twice a week under the conditions specified above, and biweekly examinations were conducted until death.

The test system of experiment [3] is naturally aged mice. Description: Anti-aging evaluation in naturally aged mice, Example 31, Table 55.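 For all read-outs here: Vehicle-dosed control mice received solution alone at matching volume, values compare test-compound-treated aged mice against that control.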 The experiment is classed as in vivo, mouse. Conditions: for Femur Ctsk mRNA / Kidney Agtr1a mRNA / Liver IL6 mRNA / Liver MMP3 mRNA / Liver p16 mRNA / Open Field Test Time in Center: untreated = 100%; for Heart Sur2a mRNA / Joint Col2a1 mRNA / Skin Col1a1 mRNA / Skin SDF1 mRNA: untreated = 1.0; for Muscle Mass: untreated 0.64 g; for Fat Mass: untreated 0.82 g; for Cataract incidence: untreated 83%.

For experiment [4], the system named is bleomycin-induced pulmonary fibrosis mice. As to the kind of experiment: Bleomycin-induced pulmonary fibrosis mice, Example 31, Table 56. The experiment is classed as in vivo, mouse. To be noted: untreated = 100%. The procedure: as §1
The table below quantitatively presents the evaluation results for each item in mice with bleomycin-induced pulmonary fibrosis, untreated and treated with the test compound.

Experiment [5] concerns senescent A549 cells. Description: Viability of senescent A549 cells (CellTiter-Glo), Example 18, Table 15. Conditions: Homo sapiens, A549, read-out: Survival (%).
Description: Senescence-induced cancer cells treated with doxorubicin were treated with the test compound at designated concentrations, and cell viability was measured using the CellTiter-Glo Luminescent Cell Viability Assay (Promega).

With `CN(NC(=O)CC(=O)NN(C)C(=S)c1ccccc1)C(=S)c1ccccc1` [LX-6501, Elesclomol], in experiment [1], the viability at 1.1 µM is 94.5%, the viability at 10 µM was 71.5% and the viability at 30 µM was found to be 7.8%. In addition, in experiment [2], the “Liver p16 mRNA” value is on record as 34 (±3.0) % and the “Col1a1 mRNA” value is 75 (±2.5) %. In experiment [3], the “Femur Ctsk mRNA” value is 64%, the “Heart Sur2a mRNA” value was found to be 1.8 fold, the “Joint Col2a1 mRNA” value is 2.7 fold and the “Kidney Agtr1a mRNA” value was 49%. Moreover, in experiment [3], the “Liver IL6 mRNA” value worked out at 46%, the “Liver MMP3 mRNA” value is 56%, the “Liver p16 mRNA” value amounted to 38% and the “Open Field Test Time in Center” value is 214%. Also, in experiment [3], the “Skin Col1a1 mRNA” value is 1.9 Fold, the “Skin SDF1 mRNA” value is on record as 2.2 fold, the “Muscle Mass” value worked out at 0.71 g and the “Fat Mass” value came to 0.89 g. For the same compound, the Cataract incidence in experiment [3] is recorded as 48%. In experiment [4], the “Lung p16 mRNA” value is listed as 68 (±4.4) % and the “Col1a1 mRNA” value is listed as 75 (±5.3) %. In experiment [5], the viability at 1.1 µM came to 97%, the viability at 10 µM came to 62.4% and the viability at 30 µM was 13%.
As for `NC(=O)c1ncn([C@@H]2O[C@H](CO)[C@@H](O)[C@H]2O)n1` [LX-6537, Ribavirin], in experiment [1], the viability at 1.1 µM is 90.9%, the viability at 10 µM came out at 67.3% and the viability at 30 µM was 12.2%. For the same compound, in experiment [2], the “Liver p16 mRNA” value is given as 77 (±5.7) % and the “Col1a1 mRNA” value was 81 (±4.1) %. Further, in experiment [3], the “Femur Ctsk mRNA” value came to 67%, the “Heart Sur2a mRNA” value worked out at 1.6 fold, the “Joint Col2a1 mRNA” value turned out to be 2.2 fold and the “Kidney Agtr1a mRNA” value was 73%. Moreover, in experiment [3], the “Liver IL6 mRNA” value is reported as 48%, the “Liver MMP3 mRNA” value was 67%, the “Liver p16 mRNA” value was determined as 74% and the “Open Field Test Time in Center” value turned out to be 177%. In experiment [3], the “Skin Col1a1 mRNA” value is 1.9 Fold, the “Skin SDF1 mRNA” value was 1.4 fold, the “Muscle Mass” value is on record as 0.68 g and the “Fat Mass” value stood at 0.85 g. In experiment [3], this compound returned a Cataract incidence of 72%. Moreover, in experiment [4], the “Lung p16 mRNA” value is given as 64 (±3.2) % and the “Col1a1 mRNA” value is 67 (±3.9) %. Further, in experiment [5], the viability at 1.1 µM stood at 102%, the viability at 10 µM is 66.8% and the viability at 30 µM is 2.4%.
With `C=C1CC[C@@H]2[C@](C)(CO)[C@H](O)CC[C@@]2(C)[C@@H]1C/C=C1/C(=O)OC[C@H]1O` [LX-6800, Andrographolide], in experiment [1], the viability at 1.1 µM was 81.6%, the viability at 10 µM stood at 56.5% and the viability at 30 µM amounted to 2.2%. In experiment [2], the “Liver p16 mRNA” value is listed as 80 (±4.9) % and the “Col1a1 mRNA” value is listed as 76 (±2.7) %. For the same compound, in experiment [3], the “Femur Ctsk mRNA” value is reported as 58%, the “Heart Sur2a mRNA” value stood at 2.3 fold, the “Joint Col2a1 mRNA” value came out at 2.4 fold and the “Kidney Agtr1a mRNA” value is listed as 78%. Further, in experiment [3], the “Liver IL6 mRNA” value is 56%, the “Liver MMP3 mRNA” value amounted to 77%, the “Liver p16 mRNA” value is on record as 73% and the “Open Field Test Time in Center” value came to 154%. Besides, in experiment [3], the “Skin Col1a1 mRNA” value was 2.1 Fold, the “Skin SDF1 mRNA” value was determined as 2.0 fold, the “Muscle Mass” value worked out at 0.70 g and the “Fat Mass” value amounted to 0.91 g. In addition, the Cataract incidence in experiment [3] came to 75%. Also, in experiment [4], the “Lung p16 mRNA” value was 78 (±3.8) % and the “Col1a1 mRNA” value is 62 (±3.6) %. For the same compound, in experiment [5], the viability at 1.1 µM amounted to 80.9%, the viability at 10 µM was found to be 70.9%, the viability at 30 µM came out at 43.8% and the viability at 90 µM was 17%.
Consider `C[S+]([O-])CCCCN=C=S` (stereo not drawn) [LX-7103, Sulforaphane], for which, in experiment [1], the viability at 1.1 µM was 84.3% and the viability at 10 µM is 7.9%. Also, in experiment [2], the “Liver p16 mRNA” value was 70 (±2.2) % and the “Col1a1 mRNA” value is given as 68 (±2.9) %. Also, in experiment [3], the “Femur Ctsk mRNA” value turned out to be 65%, the “Heart Sur2a mRNA” value is 2.1 fold, the “Joint Col2a1 mRNA” value is recorded as 2.3 fold and the “Kidney Agtr1a mRNA” value turned out to be 67%. Also, in experiment [3], the “Liver IL6 mRNA” value turned out to be 67%, the “Liver MMP3 mRNA” value is given as 79%, the “Liver p16 mRNA” value is listed as 65% and the “Open Field Test Time in Center” value stood at 218%. In experiment [3], the “Skin Col1a1 mRNA” value turned out to be 2.6 Fold, the “Skin SDF1 mRNA” value was found to be 2.6 fold, the “Muscle Mass” value turned out to be 0.67 g and the “Fat Mass” value was 0.96 g. Besides, the Cataract incidence in experiment [3] is on record as 69%. In addition, in experiment [4], the “Lung p16 mRNA” value was 65 (±2.1) % and the “Col1a1 mRNA” value was 66 (±4.5) %. In addition, in experiment [5], the viability at 1.1 µM worked out at 102%, the viability at 10 µM turned out to be 37.6% and the viability at 30 µM amounted to 4.1%.
Turning to `C[C@@H](Nc1nc(N[C@H](C)C(F)(F)F)nc(-c2cccc(Cl)n2)n1)C(F)(F)F` [LX-8726, Vorasidenib], the viability at 1.1 µM in experiment [1] worked out at 52.3%. In experiment [2], the “Liver p16 mRNA” value is on record as 36 (±4.3) % and the “Col1a1 mRNA” value is listed as 48 (±4.3) %. Moreover, in experiment [3], the “Femur Ctsk mRNA” value was found to be 25%, the “Heart Sur2a mRNA” value is 2.9 fold, the “Joint Col2a1 mRNA” value is 2.4 fold and the “Kidney Agtr1a mRNA” value worked out at 48%. Further, in experiment [3], the “Liver IL6 mRNA” value worked out at 25%, the “Liver MMP3 mRNA” value came out at 64%, the “Liver p16 mRNA” value was found to be 61% and the “Open Field Test Time in Center” value was 276%. Besides, in experiment [3], the “Skin Col1a1 mRNA” value was 2.8 Fold, the “Skin SDF1 mRNA” value stood at 2.7 fold, the “Muscle Mass” value is 0.81 g and the “Fat Mass” value came to 1.20 g. In experiment [3], this compound returned a Cataract incidence of 43%. Further, in experiment [4], the “Lung p16 mRNA” value is reported as 42 (±2.9) % and the “Col1a1 mRNA” value was 58 (±5.3) %. In experiment [5], the viability at 1.1 µM was 71.7% and the viability at 10 µM came out at 17.5%.
Turning to `Cn1cc(C[C@@H](N)C(=O)O)c2ccccc21` [LX-8801, Indoximod], in experiment [1], the viability at 1.1 µM was 69.1% and the viability at 10 µM turned out to be 1.2%. Moreover, in experiment [2], the “Liver p16 mRNA” value is 49 (±4.3) % and the “Col1a1 mRNA” value is 53 (±3.5) %. Moreover, in experiment [3], the “Femur Ctsk mRNA” value was 35%, the “Heart Sur2a mRNA” value is given as 2.9 fold, the “Joint Col2a1 mRNA” value was determined as 1.7 fold and the “Kidney Agtr1a mRNA” value was 72%. In experiment [3], the “Liver IL6 mRNA” value came out at 33%, the “Liver MMP3 mRNA” value came out at 63%, the “Liver p16 mRNA” value came out at 54% and the “Open Field Test Time in Center” value was found to be 205%. In experiment [3], the “Skin Col1a1 mRNA” value came to 2.1 Fold, the “Skin SDF1 mRNA” value is given as 2.6 fold, the “Muscle Mass” value is 0.69 g and the “Fat Mass” value worked out at 0.94 g. The same compound yielded a Cataract incidence in experiment [3] of 59%. Moreover, in experiment [4], the “Lung p16 mRNA” value is given as 44 (±3.0) % and the “Col1a1 mRNA” value is 67 (±4.5) %. For the same compound, in experiment [5], the viability at 1.1 µM was 62.5% and the viability at 10 µM was determined as 8.4%.
With `C[C@@H](C(=O)Nc1ccc(Cl)cc1)[C@H]1CC[C@@H](c2ccnc3ccc(F)cc32)CC1` [LX-8805, Linrodostat], in experiment [1], the viability at 1.1 µM worked out at 99.1%, the viability at 10 µM is 42.1% and the viability at 30 µM stood at 21.8%. Besides, in experiment [2], the “Liver p16 mRNA” value is 60 (±3.9) % and the “Col1a1 mRNA” value is on record as 36 (±3.4) %. Besides, in experiment [3], the “Femur Ctsk mRNA” value was found to be 58%, the “Heart Sur2a mRNA” value is 2.6 fold, the “Joint Col2a1 mRNA” value stood at 2.6 fold and the “Kidney Agtr1a mRNA” value amounted to 55%. In experiment [3], the “Liver IL6 mRNA” value came to 25%, the “Liver MMP3 mRNA” value amounted to 67%, the “Liver p16 mRNA” value is reported as 47% and the “Open Field Test Time in Center” value worked out at 217%. For the same compound, in experiment [3], the “Skin Col1a1 mRNA” value is on record as 1.7 Fold, the “Skin SDF1 mRNA” value was found to be 1.9 fold, the “Muscle Mass” value is 0.72 g and the “Fat Mass” value worked out at 0.87 g. Further, the Cataract incidence in experiment [3] worked out at 68%. In addition, in experiment [4], the “Lung p16 mRNA” value is reported as 40 (±2.1) % and the “Col1a1 mRNA” value is recorded as 70 (±4.6) %. Besides, in experiment [5], the viability at 1.1 µM turned out to be 103%, the viability at 10 µM came out at 58.3% and the viability at 30 µM was 32.8%.
